Patent US20210369710A1, “MODULATORS OF MYC FAMILY PROTO-ONCOGENE PROTEIN” (Nalo Therapeutics, priority 2019, published 2021)

Assays:
MycN Protein = biological target: T1, MycN Protein (Homo sapiens, UniProt P04198); assay: Degradation of MycN protein, Western blot band density in cells; format: cell-based; settings: HL-60 or SKNBE2 cells; 6 uL of compound (1 mM) added to 3 mL cells; 6 hours; Western blot band density (ImageJ)
T1 construct: endogenous in cells; host or cells: HL-60 or SKNBE2
T1 sequence (P04198 1-464): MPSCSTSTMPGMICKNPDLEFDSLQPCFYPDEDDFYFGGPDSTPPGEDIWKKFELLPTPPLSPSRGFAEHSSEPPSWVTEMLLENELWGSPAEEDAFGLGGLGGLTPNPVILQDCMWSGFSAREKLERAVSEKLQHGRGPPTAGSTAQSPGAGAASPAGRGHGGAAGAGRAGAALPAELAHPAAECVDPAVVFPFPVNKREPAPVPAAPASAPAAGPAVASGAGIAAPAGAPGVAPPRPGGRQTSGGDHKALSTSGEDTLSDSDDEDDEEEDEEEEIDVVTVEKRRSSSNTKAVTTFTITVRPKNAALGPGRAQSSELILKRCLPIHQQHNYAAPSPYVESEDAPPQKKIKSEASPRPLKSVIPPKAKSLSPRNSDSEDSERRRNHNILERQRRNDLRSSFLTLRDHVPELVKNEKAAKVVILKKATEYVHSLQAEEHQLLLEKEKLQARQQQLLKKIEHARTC
Description: (§1) In a T150 flask was plated either 2×10^6 of HL-60 (human leukemia cell line) or SKNBE2 (neuroblastoma cell line) cells in a total of 30 mL containing Roswell Park Memorial Institute (RPMI) 1640 Medium (Thermo Fisher, Cat. #11875-085), 10% Fetal Bovine Serum (FBS, Thermo Fisher: Cat. #10437-028), 1% Penicillin/streptomycin (Thermo Fisher: Cat. #10378016), and 1% Amophotericin B (Thermo Fisher, Cat. #15290026). The cells were split every 72 hours by reseeding the HL-60 or SKNBE2 cells, and the passage number was noted. It is noteworthy that cell cultures that were above 40 passages were not used, and most experiments were done with cells of less than 30 passages.
(§2) In a 6-well cell culture plate, a total of 3 mL of either 1×10^6 cells/mL of HL-60 or SKNBE2 cells were seeded, resulting in a total of 3×10^6 cells per well. To each well containing 3 mL of either HL-60 or SKNBE2 cell line was added 6 uL of MycN modulating compound (1 mM) and the resulting plate was shaken from left to right, and not swirled. After 6 hours, the cells were placed in a 15 mL falcon tube and spun at 500 Gs at 4° C. in a swinging bucket centrifuge. The medium was then carefully removed without disturbing the pellet. The pellet was then washed with 3 mLs of chilled phosphate buffered saline (PBS) and subjected to the spin cycle. PBS was then removed and the pellet was lysed in 200 uL of radioimmunoprecipitation (RIPA) lysis buffer (Thermo Fisher: Cat. #899000) that is supplemented with protease and phosphatase inhibitors (Thermo Fisher: Cat. #A32959). The cell lysate was then subjected to spinning in a centrifuge for 10 minutes at 13000G at 4° C. The supernatant was then carefully transferred to a fresh eppendorf tube without disturbing the pellet (˜180 uL). The protein concentration of the cell lysate was then determined by using a bicinchoninic acid (BCA assay) according to manufacturer's protocol (Thermo Fisher: Cat. #23227).
(§3) Cell lysate, approximately 25 ug-30 ug, was loaded per well in a 4-20% polyacrylamide gel (Biorad. Cat. #5671094). After running the dye front off of the gel, the gel was transferred to a nitrocellulose membrane (Biorad: Cat. #1704159) using the transblot turbo system (Biorad: Cat. #1704150) according to manufacturer's protocol. After transferring for 30 minutes, the membrane was blocked with 5% BSA for 1 hour at room temperature. The BSA was then washed off and the primary antibody of choice (1:500) was added, and the membrane was incubated with the primary antibody at 4° C. for overnight. The next morning, the primary antibody was removed and the membrane was washed with 1×-TBST for 10 minutes and repeated three more times. Following the last wash, a secondary antibody (Molecular Devices. Cat. #R8209 or R8208) was added at 1:5000 dilution and incubated for 1 hour at room temperature. Following the incubation with the secondary antibody, the membrane was washed with 1×-TBST for 10 minutes and repeated three more times. Following the last wash, the membrane was washed with de-ionized water twice and dried for at least two hours. Once the membrane is completely dry, the Molecular Devices Spectra Max western system was used to observe the bands. The western image was saved and the band density was measured with ImageJ software.

MycC Protein = biological target: T2, MycC Protein (Homo sapiens, UniProt P01106); assay: Degradation of MycC protein, Western blot band density in cells; format: cell-based; settings: HL-60 or SKNBE2 cells; 6 uL of compound (1 mM) added to 3 mL cells; 6 hours; Western blot band density (ImageJ)
T2 construct: endogenous in cells; host or cells: HL-60 or SKNBE2
T2 sequence (P01106 whole entry): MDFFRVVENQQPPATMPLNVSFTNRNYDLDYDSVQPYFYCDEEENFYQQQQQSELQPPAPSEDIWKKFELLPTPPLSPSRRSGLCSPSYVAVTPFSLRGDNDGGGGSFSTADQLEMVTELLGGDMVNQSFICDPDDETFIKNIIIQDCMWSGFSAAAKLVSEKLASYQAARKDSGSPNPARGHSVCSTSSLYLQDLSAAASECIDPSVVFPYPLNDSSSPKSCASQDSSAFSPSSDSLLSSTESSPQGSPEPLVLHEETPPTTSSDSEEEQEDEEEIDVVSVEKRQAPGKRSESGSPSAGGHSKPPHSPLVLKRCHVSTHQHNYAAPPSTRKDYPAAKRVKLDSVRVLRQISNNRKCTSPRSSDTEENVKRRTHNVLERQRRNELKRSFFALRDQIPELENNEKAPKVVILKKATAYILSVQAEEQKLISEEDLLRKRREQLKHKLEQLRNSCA
Description: as §1, §2, §3

Dmax at 2 µM (MycN Protein) | Dmax at 2 µM (MycC Protein) | SMILES | % Degradation of MycN (MycN Protein) | % Degradation of MycC (MycC Protein)
 |  | N#Cc1ccc2c(c1)CC(NC(=O)N[C@H]1CC[C@H](Nc3nccc(Nc4cc(C5CCCC5)[nH]n4)n3)CC1)C2 (stereo partly drawn) [Compound 11 (Fraction 2), 1-(5-cyano-2,3-dihydro-1H-inden-2-yl)-3-((1R,4R)-4-((4-((5-cyclopentyl-1H-pyrazol-3-yl)amino)pyrimidin-2-yl)amino)cyclohexyl)urea] | *** (***: degradation 50-79%) | **** (****: degradation 80-100%)
< 20% | < 20% | O=C(NC1CCN(C2COC2)CC1)N[C@H]1CC[C@H](Nc2nccc(Nc3cc(C4CCCC4)[nH]n3)n2)CC1 [Compound 12, 1-((1R,4R)-4-((4-((5-cyclopentyl-1H-pyrazol-3-yl)amino)pyrimidin-2-yl)amino)cyclohexyl)-3-(1-(oxetan-3-yl)piperidin-4-yl)urea] |  | 
 |  | CN(c1nccc(Nc2cc(C3CCCC3)[nH]n2)n1)C1CCC(NC(=O)NC2Cc3ccc(C#N)cc3C2)CC1 [Compound 16 (Fraction 1), 1-(5-cyano-2,3-dihydro-1H-inden-2-yl)-3-((1R,4R)-4-((4-((5-cyclopentyl-1H-pyrazol-3-yl)amino)pyrimidin-2-yl)(methyl)amino)cyclohexyl)urea] | *** (***: degradation 50-79%) | **** (****: degradation 80-100%)
 |  | CN(c1nccc(Nc2cc(C3CCCC3)[nH]n2)n1)C1CCC(NC(=O)NC2Cc3ccc(C#N)cc3C2)CC1 [Compound 16 (Fraction 2), 1-(5-cyano-2,3-dihydro-1H-inden-2-yl)-3-((1R,4R)-4-((4-((5-cyclopentyl-1H-pyrazol-3-yl)amino)pyrimidin-2-yl)(methyl)amino)cyclohexyl)urea] | *** (***: degradation 50-79%) | **** (****: degradation 80-100%)
80 to 100% | 80 to 100% | Cc1nc(-c2ccc3c(c2)CC(NC(=O)N[C@H]2CC[C@H](Nc4nccc(Nc5cc(C6CCCC6)[nH]n5)n4)CC2)C3)no1 (stereo partly drawn) [Compound 20, 1-((1R,4R)-4-((4-((5-cyclopentyl-1H-pyrazol-3-yl)amino)pyrimidin-2-yl)amino)cyclohexyl)-3-(5-(5-methyl-1,2,4-oxadiazol-3-yl)-2,3-dihydro-1H-inden-2-yl)urea] |  | 
20 to 49% | < 20% | N#Cc1ccc2c(c1)CC(NC(=O)N[C@H]1CC[C@H](Nc3nccc(Nc4cc(C5CC5)[nH]n4)n3)CC1)C2 (stereo partly drawn) [Compound 21, 1-(5-cyano-2,3-dihydro-1H-inden-2-yl)-3-((1R,4R)-4-((4-((5-cyclopropyl-1H-pyrazol-3-yl)amino)pyrimidin-2-yl)amino)cyclohexyl)urea] |  | 
< 20% | 20 to 49% | O=C(NC1CCS(=O)(=O)CC1)N[C@H]1CC[C@H](Nc2nccc(Nc3cc(C4CCCC4)[nH]n3)n2)CC1 [Compound 24] |  | 
< 20% | < 20% | O=C(NC1CCCS(=O)(=O)C1)N[C@H]1CC[C@H](Nc2nccc(Nc3cc(C4CCCC4)[nH]n3)n2)CC1 (stereo partly drawn) [Compound 25] |  | 
20 to 49% | < 20% | CS(=O)(=O)[C@H]1CCCC(NC(=O)N[C@H]2CC[C@H](Nc3nccc(Nc4cc(C5CCCC5)[nH]n4)n3)CC2)C1 (stereo partly drawn) [Compound 26] |  | 
< 20% | < 20% | Cc1cc(Nc2ccnc(N[C@H]3CC[C@H](NC(=O)N[C@H]4CC[C@H](S(C)(=O)=O)CC4)CC3)n2)n[nH]1 [Compound 32] |  | 
< 20% | 50 to 79% | O=C(NC1CS(=O)(=O)C1)N[C@H]1CC[C@H](Nc2nccc(Nc3cc(C4CCCC4)[nH]n3)n2)CC1 [Compound 34] |  | 
80 to 100% | 20 to 49% | O=C(N[C@@H]1CCC[C@H](C(F)(F)F)C1)N[C@H]1CC[C@H](Nc2nccc(Nc3cc(C4CCCC4)[nH]n3)n2)CC1 [Compound 35, 1-((1R,4R)-4-((4-((5-cyclopentyl-1H-pyrazol-3-yl)amino)pyrimidin-2-yl)amino)cyclohexyl)-3-((1R,3S/1S,3R)-3-(trifluoromethyl)cyclohexyl)urea] |  | 
< 20% | < 20% | O=C(NC1CCC(N2CCOC2=O)CC1)N[C@H]1CC[C@H](Nc2nccc(Nc3cc(C4CCCC4)[nH]n3)n2)CC1 (stereo partly drawn) [Compound 37, 1-((1R,4R)-4-((4-((5-cyclopentyl-1H-pyrazol-3-yl)amino)pyrimidin-2-yl)amino)cyclohexyl)-3-(4-(2-oxooxazolidin-3-yl)cyclohexyl)urea] |  | 
20 to 49% | 50 to 79% | CC1(NC(=O)N[C@H]2CC[C@H](Nc3nccc(Nc4cc(C5CCCC5)[nH]n4)n3)CC2)CCOCC1 [Compound 38, 1-((1R,4R)-4-((4-((5-cyclopentyl-1H-pyrazol-3-yl)amino)pyrimidin-2-yl)amino)cyclohexyl)-3-(4-methyltetrahydro-2H-pyran-4-yl)urea] |  | 
50 to 79% | 20 to 49% | O=C(Nc1cccc(C(F)(F)F)c1)N[C@H]1CC[C@H](Nc2nccc(Nc3cc(C4CCCC4)[nH]n3)n2)CC1 [Compound 39, 1-((1R,4R)-4-((4-((5-cyclopentyl-1H-pyrazol-3-yl)amino)pyrimidin-2-yl)amino)cyclohexyl)-3-(3-(trifluoromethyl)phenyl)urea] |  | 
50 to 79% | 50 to 79% | O=C(Nc1cccc(C(F)(F)F)c1)N[C@H]1CC[C@@H](Nc2nccc(Nc3cc(C4CCCC4)[nH]n3)n2)CC1 [Compound 40, 1-((1S,4S)-4-((4-((5-cyclopentyl-1H-pyrazol-3-yl)amino)pyrimidin-2-yl)amino)cyclohexyl)-3-(3-(trifluoromethyl)phenyl)urea] |  | 
20 to 49% | 20 to 49% | COCCNC(=O)NC1CCC(Nc2nccc(Nc3cc(C4CCCC4)[nH]n3)n2)CC1 [Compound 43, 1-((1R,4R)-4-((4-((5-cyclopentyl-1H-pyrazol-3-yl)amino)pyrimidin-2-yl)amino)cyclohexyl)-3-(2-methoxyethyl)urea] |  | 
< 20% | 20 to 49% | CO[C@H]1C[C@H](NC(=O)NC2CCC(Nc3nccc(Nc4cc(C5CCCC5)[nH]n4)n3)CC2)C1 (stereo partly drawn) [Compound 44, 1-((1R,4R)-4-((4-((5-cyclopentyl-1H-pyrazol-3-yl)amino)pyrimidin-2-yl)amino)cyclohexyl)-3-((1R,3R)-3-methoxycyclobutyl)urea] |  | 
20 to 49% | < 20% | O=C(NC1COC1)N[C@H]1CC[C@H](Nc2nccc(Nc3cc(C4CCCC4)[nH]n3)n2)CC1 [Compound 46] |  | 
< 20% | < 20% | O=C(NC1CC2(COC2)C1)N[C@H]1CC[C@H](Nc2nccc(Nc3cc(C4CCCC4)[nH]n3)n2)CC1 [Compound 47] |  | 
< 20% | 20 to 49% | CC(=O)N1CC(NC(=O)N[C@H]2CC[C@H](Nc3nccc(Nc4cc(C5CCCC5)[nH]n4)n3)CC2)C1 [Compound 48, 1-(1-acetylazetidin-3-yl)-3-((1R,4R)-4-((4-((5-cyclopentyl-1H-pyrazol-3-yl)amino)pyrimidin-2-yl)amino)cyclohexyl)urea] |  | 
